Data: ChEMBL document CHEMBL1201862, “PubChem BioAssay data set” (2004)
The source made the active and inactive calls.

Tests used:
Kallikrein-7 = Kallikrein-7 (Homo sapiens, UniProt P49862); assay: Fluorescence Intensity-based biochemical primary high throughput dose response assay to identify activators of kallikrein-7 (K7) zymogen.
[1] = cytotoxicity toward HT-29 cells – cell-based, CellTiter-Glo luminescence, IC50, dose response (AID 1117330); assay type: functional
[2] = HeLa 4N DNA content increase, dose response, cell-based, IC50 (AID 1117351); assay type: functional
[3] = CellTiter-Glo luminescent dose response of DLD-1 viability loss (AID 1117352); assay type: functional
BJ [4] = assay: cytotoxicity toward BJ-TERT-LT-ST fibroblasts, dose response, cell-based, RAS-independent, luminescence (AID 1935); assay type: functional; conditions: Homo sapiens;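 note: BJ fibroblasts immortalized with TERT plus LT and ST oncogenes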
BJ [5] = assay: cytotoxicity toward BJ-TERT fibroblasts, dose response, cell-based, RAS-independent, luminescence (AID 1933); assay type: functional; conditions: Homo sapiens
BJ [6] = assay: cytotoxicity toward Ras-transformed BJeLR fibroblasts, dose response, cell-based, alamar blue fluorescence, cherrypicked samples (AID 2631); assay type: functional; conditions: Homo sapiens;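 note: confirmatory dose-response assay in RAS-dependent BJ fibroblasts engineered with TERT, LT and ST, with cytotoxicity read by fluorescence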
[7] = cytotoxicity toward HCT116 cells – cell-based, CellTiter-Glo luminescence, IC50, dose response (AID 1117332); assay type: functional; conditions: HCT-116
[8] = SNU-C1 cell viability reduction, dose response, CellTiter-Glo luminescence (AID 1117323); assay type: functional, cell-based
[9] = HCT116 cell viability decrease, GSK3B pretreatment – CellTiter-Glo, IC50, dose response (AID 1117339); assay type: functional; conditions: HCT-116
[10] = cytotoxicity toward DRD oncogenic fibroblasts, dose response, cell-based, non-viral oncogenic, luminescence (AID 1934); assay type: functional; conditions: Homo sapiens
BJ [11] = assay: cells; assay type: functional, cell-based; conditions: Homo sapiens
[12] = HeLa 2N DNA content increase, dose response, cell-based, IC50 (AID 1117349); assay type: functional
[13] = RKO cell viability reduction, dose response, CellTiter-Glo luminescence (AID 1117322); assay type: functional
[14] = biological target: T1, Corticotropin-releasing factor receptor 2/Corticotropin-releasing factor-binding protein (Homo sapiens, UniProt P24387+Q13324); assay: Dose Response confirmation of uHTS hits for small molecule antagonists of the CRF-binding protein and CRF-R2 receptor complex.; assay type: functional; conditions: read-out: IC50_Mean
T1 sequence (Q13324 whole entry): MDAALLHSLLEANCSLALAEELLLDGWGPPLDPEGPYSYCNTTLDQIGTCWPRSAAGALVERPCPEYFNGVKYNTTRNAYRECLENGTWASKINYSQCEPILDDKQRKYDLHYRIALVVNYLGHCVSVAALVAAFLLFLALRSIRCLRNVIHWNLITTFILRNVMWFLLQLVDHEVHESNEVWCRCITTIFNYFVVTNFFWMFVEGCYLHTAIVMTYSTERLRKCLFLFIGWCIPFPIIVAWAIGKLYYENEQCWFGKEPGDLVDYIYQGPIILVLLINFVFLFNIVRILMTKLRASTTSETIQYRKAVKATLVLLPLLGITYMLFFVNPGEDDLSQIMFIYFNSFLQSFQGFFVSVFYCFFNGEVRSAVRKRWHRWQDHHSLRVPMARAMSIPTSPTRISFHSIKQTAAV
T1 sequence (P24387 whole entry): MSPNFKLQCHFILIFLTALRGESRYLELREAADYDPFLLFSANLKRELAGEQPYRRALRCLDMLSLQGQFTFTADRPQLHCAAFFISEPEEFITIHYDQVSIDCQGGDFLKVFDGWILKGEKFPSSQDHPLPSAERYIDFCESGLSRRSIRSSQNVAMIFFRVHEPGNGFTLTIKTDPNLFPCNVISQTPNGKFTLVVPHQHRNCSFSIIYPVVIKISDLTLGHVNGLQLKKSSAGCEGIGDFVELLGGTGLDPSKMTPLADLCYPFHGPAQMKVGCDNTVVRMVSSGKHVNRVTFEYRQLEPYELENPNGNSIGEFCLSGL

[15] = biological target: T2, 1-phosphatidylinositol 4,5-bisphosphate phosphodiesterase beta-3 (Homo sapiens, UniProt Q01970); assay: Fluorescence-based biochemical high throughput dose response assay to identify inhibitors of phospholipase C isozymes (PLC-B3).
T2 sequence (Q01970 whole entry): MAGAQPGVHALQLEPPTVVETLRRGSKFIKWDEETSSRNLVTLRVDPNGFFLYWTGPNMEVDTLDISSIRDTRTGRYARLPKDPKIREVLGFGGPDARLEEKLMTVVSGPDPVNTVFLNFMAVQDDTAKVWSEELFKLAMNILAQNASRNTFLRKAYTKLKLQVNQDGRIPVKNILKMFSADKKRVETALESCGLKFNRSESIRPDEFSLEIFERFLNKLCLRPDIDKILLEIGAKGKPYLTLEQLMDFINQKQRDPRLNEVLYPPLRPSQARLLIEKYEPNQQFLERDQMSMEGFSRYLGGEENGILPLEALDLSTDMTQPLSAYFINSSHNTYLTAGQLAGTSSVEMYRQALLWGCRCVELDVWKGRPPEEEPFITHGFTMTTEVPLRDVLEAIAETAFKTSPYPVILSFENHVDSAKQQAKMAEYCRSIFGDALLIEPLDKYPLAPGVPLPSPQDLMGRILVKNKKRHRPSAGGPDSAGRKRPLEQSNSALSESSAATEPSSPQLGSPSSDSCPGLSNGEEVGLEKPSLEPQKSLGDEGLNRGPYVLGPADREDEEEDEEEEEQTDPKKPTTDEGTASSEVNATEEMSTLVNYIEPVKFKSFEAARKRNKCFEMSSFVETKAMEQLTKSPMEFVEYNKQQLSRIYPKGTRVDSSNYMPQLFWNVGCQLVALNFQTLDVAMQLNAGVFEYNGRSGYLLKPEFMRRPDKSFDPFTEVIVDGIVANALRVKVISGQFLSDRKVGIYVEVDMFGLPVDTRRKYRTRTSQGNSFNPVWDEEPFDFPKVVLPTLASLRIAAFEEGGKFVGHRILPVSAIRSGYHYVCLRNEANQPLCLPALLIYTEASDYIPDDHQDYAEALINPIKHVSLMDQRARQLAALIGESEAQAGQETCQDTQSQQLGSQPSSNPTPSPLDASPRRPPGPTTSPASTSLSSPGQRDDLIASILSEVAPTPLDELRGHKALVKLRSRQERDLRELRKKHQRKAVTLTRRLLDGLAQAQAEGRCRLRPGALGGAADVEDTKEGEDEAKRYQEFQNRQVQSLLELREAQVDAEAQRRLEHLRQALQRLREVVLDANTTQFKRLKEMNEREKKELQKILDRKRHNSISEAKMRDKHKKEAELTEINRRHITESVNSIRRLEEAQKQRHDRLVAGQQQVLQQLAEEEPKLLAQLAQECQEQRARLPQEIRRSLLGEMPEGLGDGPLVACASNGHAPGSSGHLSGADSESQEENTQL

[16] = biological target: Voltage-dependent T-type calcium channel subunit alpha-1H (Homo sapiens, UniProt O95180); assay type: functional;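 note: channel activity triggered by adding a high calcium stimulation buffer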
[17] = biological target: T1, Corticotropin-releasing factor receptor 2/Corticotropin-releasing factor-binding protein; assay: activators of CRF receptor 2 with binding protein – uHTS hits, confirmation (AID 602473); assay type: functional; conditions: read-out: EC50_Mean
[18] = biological target: T3, 1-phosphatidylinositol 4,5-bisphosphate phosphodiesterase gamma-1 (Homo sapiens, UniProt P19174); assay: Counterscreen for inhibitors of phospholipase C isozymes (PLC-B3): Fluorescence-based biochemical high throughput dose response assay to identify inhibitors of phospholipase C isozymes (PLC-gamma1).
T3 sequence (P19174 whole entry): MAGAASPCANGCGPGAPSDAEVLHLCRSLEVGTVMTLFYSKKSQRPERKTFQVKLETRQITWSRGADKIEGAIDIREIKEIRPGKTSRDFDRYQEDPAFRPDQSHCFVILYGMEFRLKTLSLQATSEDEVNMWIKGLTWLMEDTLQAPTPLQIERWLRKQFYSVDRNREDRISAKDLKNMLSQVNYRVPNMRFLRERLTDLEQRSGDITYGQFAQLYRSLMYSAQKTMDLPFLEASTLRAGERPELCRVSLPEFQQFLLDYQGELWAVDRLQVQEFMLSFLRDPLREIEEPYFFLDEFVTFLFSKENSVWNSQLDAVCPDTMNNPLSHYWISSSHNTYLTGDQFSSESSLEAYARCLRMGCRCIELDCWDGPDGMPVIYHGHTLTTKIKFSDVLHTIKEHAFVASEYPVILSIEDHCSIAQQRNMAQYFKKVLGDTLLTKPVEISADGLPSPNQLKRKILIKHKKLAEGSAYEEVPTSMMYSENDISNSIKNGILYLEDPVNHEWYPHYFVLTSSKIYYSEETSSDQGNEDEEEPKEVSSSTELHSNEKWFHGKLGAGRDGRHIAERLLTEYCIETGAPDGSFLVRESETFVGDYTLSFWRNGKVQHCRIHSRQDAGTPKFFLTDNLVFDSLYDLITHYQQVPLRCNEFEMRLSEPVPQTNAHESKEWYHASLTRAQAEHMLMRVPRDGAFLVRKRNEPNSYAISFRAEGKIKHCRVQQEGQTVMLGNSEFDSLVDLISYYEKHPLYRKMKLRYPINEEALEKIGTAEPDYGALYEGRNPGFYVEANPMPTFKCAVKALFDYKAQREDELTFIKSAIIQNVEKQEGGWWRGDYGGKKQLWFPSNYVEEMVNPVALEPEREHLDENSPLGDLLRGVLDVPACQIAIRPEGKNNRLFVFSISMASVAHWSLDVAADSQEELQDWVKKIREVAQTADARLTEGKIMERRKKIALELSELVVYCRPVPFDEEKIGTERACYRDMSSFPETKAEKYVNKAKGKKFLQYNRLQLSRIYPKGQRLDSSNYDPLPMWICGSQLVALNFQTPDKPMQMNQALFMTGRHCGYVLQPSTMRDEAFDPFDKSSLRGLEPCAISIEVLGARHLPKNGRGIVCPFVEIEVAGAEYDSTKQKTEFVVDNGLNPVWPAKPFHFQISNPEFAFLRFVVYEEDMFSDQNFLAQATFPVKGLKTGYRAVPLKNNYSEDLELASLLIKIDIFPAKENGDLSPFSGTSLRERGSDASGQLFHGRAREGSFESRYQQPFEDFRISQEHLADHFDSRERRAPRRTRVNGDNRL

Kallikrein-7, sequence (P49862 whole entry): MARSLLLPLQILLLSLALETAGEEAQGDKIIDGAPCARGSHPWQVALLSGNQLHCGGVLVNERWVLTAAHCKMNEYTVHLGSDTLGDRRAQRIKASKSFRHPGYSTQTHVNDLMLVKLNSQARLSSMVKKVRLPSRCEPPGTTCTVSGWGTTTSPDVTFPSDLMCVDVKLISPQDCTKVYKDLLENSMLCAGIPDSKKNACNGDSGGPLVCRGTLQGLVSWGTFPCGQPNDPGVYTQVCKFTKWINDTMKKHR
Voltage-dependent T-type calcium channel subunit alpha-1H, sequence (O95180 whole entry): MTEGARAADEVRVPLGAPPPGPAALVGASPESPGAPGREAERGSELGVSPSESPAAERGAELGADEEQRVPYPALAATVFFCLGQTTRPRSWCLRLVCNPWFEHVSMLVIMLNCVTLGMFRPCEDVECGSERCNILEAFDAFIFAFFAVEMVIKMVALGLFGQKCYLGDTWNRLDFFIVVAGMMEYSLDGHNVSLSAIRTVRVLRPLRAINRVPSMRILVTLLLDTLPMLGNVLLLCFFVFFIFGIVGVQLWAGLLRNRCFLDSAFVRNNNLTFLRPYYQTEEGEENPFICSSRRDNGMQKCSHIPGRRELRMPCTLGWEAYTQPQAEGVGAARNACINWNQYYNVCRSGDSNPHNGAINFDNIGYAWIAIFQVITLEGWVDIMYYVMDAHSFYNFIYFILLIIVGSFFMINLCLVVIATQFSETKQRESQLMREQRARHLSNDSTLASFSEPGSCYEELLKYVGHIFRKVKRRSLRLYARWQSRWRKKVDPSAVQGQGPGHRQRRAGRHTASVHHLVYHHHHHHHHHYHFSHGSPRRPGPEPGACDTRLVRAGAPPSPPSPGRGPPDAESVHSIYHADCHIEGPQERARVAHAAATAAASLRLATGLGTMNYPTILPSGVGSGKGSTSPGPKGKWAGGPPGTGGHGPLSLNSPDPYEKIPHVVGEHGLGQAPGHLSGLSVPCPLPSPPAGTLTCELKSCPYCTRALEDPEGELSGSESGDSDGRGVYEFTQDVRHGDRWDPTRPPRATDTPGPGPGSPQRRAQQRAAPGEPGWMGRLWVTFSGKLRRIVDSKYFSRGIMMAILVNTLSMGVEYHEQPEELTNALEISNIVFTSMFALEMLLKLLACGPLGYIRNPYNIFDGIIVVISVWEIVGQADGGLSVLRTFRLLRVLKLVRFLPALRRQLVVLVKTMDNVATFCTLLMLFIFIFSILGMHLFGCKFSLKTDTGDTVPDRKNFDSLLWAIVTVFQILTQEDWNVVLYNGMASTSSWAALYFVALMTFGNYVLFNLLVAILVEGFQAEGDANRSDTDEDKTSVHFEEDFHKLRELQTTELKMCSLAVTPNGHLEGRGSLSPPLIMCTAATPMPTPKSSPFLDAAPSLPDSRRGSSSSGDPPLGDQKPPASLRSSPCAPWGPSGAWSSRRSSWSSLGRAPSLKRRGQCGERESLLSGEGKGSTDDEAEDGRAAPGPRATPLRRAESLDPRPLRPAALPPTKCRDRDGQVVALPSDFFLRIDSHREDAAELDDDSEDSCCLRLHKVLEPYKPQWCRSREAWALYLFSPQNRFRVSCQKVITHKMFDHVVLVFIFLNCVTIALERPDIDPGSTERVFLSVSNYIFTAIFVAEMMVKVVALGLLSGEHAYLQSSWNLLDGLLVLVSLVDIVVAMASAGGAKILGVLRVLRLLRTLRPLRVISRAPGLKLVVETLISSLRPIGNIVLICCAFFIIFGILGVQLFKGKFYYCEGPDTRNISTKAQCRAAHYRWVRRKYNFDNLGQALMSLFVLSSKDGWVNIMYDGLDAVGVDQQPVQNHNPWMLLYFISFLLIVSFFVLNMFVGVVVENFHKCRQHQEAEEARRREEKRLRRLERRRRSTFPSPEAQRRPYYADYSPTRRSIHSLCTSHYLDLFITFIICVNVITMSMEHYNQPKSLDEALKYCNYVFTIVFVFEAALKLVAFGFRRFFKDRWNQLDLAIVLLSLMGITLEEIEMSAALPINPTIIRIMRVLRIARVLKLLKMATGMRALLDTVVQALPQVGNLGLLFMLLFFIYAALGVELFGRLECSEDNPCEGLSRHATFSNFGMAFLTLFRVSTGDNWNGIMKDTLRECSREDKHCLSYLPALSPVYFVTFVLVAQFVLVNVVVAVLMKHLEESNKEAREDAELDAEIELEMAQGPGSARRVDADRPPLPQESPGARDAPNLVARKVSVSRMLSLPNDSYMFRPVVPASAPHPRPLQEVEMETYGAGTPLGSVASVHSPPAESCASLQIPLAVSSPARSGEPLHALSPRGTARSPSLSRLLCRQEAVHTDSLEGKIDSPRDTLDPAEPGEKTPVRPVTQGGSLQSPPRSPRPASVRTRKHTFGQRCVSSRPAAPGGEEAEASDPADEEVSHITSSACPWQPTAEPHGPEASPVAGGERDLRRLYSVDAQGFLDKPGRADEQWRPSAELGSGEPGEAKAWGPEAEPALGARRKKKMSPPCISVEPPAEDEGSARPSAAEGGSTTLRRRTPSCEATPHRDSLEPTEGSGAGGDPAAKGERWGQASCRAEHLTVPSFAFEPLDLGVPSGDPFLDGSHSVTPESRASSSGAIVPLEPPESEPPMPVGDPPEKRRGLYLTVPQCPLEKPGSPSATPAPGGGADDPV

For COc1ccccc1CC(=O)Nc1ccc(NC(=O)c2cccs2)cc1, the EC50 (Kallikrein-7) was 7.57 µM (active).

With CC(=O)Nc1ccc(-c2nc3ccc(NC(C)=O)cc3o2)cc1 the EC50 (Kallikrein-7) was > 69.5 µM (inactive).

For Cn1cnc([N+](=O)[O-])c1Sc1ncnc2[nH]cnc12 [AZATHIOPRINE], the IC50 [1] was > 20 µM (inactive), the IC50 [2] was > 10 µM (inactive) and the IC50 [3] was 0.364 µM (active). For the same compound, the EC50 (BJ [4]) was > 150 µM (not active), the EC50 (BJ [5]) was > 150 µM (not active) and the EC50 (BJ [6]) was > 133 µM (inactive). For the same compound, the IC50 [7] was 0.207 µM (active), the IC50 [8] was > 20 µM (inactive) and the IC50 [9] was 0.623 µM (active). For the same compound, the EC50 [10] was 2.9 µM (active), the EC50 (BJ [11]) was 5.04 µM (inconclusive) and the IC50 [12] was > 10 µM (inactive). The IC50 [13] was 2.66 µM (active).

With O=S(=O)(c1ccccc1)c1cnn(-c2ccccc2)c1-c1ccc(F)cc1 the IC50 [14] was > 47.1 µM (inactive), the IC50 [15] was > 123 µM (inactive) and the EC50 [16] was 5.16 µM (active). For the same compound, the EC50 [17] was > 53 µM (inactive) and the IC50 [18] was > 123 µM (inactive).

In the case of CCNC(=O)C[C@H]1CC[C@H]2[C@@H](COc3ccc(NC(=O)c4ccc5c(c4)OCO5)cc3C(=O)N2C)O1, the IC50 [15] was 45.1 µM (inactive) and the IC50 [18] was 47.8 µM (inactive).
